Target: T1, γ-secretase (Homo sapiens, UniProt P49768)
T1 construct: endogenous in cells; host or cells: SKNBE2 cells carrying APP 695 wild type
Assay: Screening for γ-secretase-modulating activity in SKNBE2 cells carrying the APP 695-wild type (assay per Citron et al 1997)
Type: cell-based
Conditions: SKNBE2 cells carrying APP 695-wild type
Experimental: Screening of the Compounds of the Invention for γ-Secretase-Modulating Activity
Screening was carried out using SKNBE2 cells carrying the APP 695-wild type, grown in DMEM/NUT-mix F12 (HAM) provided by Gibco (cat no. 31330-38) containing 5% Serum/Fe supplemented with 1% non-essential amino acids.
Cells were grown to near confluency.
The screening was performed using the assay as described in Citron et al (1997) Nature Medicine 3: 67.

Row | Structure (SMILES) | EC50 | inhibition at 1 µM
1 | CC(C)CC(C(=O)O)c1cc(-c2ccc(C(F)(F)F)cc2)nc(-c2ccc(C(F)(F)F)cc2)c1 (stereo not shown) [Example 1, 2-[2,6-Bis-(4-trifluoromethyl-phenyl)-pyridin-4-yl]-4-methyl-pentanoic acid] | 0.26 µM | 
2 | CC(C)CC(C(=O)O)c1cc(-c2ccc(F)cc2)nc(-c2ccc(C(F)(F)F)cc2)c1 (stereo not shown) [Example 2, 2-[2-(4-Fluoro-phenyl)-6-(4-trifluoromethyl-phenyl)-pyridin-4-yl]-4-methyl-pentanoic acid] |  | 28%
3 | CC(C)CC(C(=O)O)c1cc(-c2ccc(OC(F)(F)F)cc2)nc(-c2ccc(C(F)(F)F)cc2)c1 (stereo not shown) [Example 3, 4-Methyl-2-[2-(4-trifluoromethoxy-phenyl)-6-(4-trifluoromethyl-phenyl)-pyridin-4-yl]-pentanoic acid] | 0.38 µM | 
4 | COc1ccc(-c2cc(C(CC(C)C)C(=O)O)cc(-c3ccc(C(F)(F)F)cc3)n2)cc1 (stereo not shown) [Example 4, 2-[2-(4-Methoxy-phenyl)-6-(4-trifluoromethyl-phenyl)-pyridin-4-yl]-4-methyl-pentanoic acid] |  | 1%
5 | CC(C)CC(C(=O)O)c1cc(-c2ccc(C(F)(F)F)cc2)nc(-c2cc(C(F)(F)F)cc(C(F)(F)F)c2)c1 (stereo not shown) [Example 6, 2-[2-(3,5-Bis-trifluoromethyl-phenyl)-6-(4-trifluoromethyl-phenyl)-pyridin-4-yl]-4-methyl-pentanoic acid] | 0.27 µM | 
6 | CC(C)CC(C(=O)O)c1cc(-c2ccc(C(F)(F)F)cc2)nc(-c2cnc3ccccc3c2)c1 (stereo not shown) [Example 7, 4-Methyl-2-[2-quinolin-3-yl-6-(4-trifluoromethyl-phenyl)-pyridin-4-yl]-pentanoic acid] | 0.67 µM | 
7 | CC(C)CC(C(=O)O)c1cc(-c2ccc(C(F)(F)F)cc2)nc(-c2cc(F)cc(C(F)(F)F)c2)c1 (stereo not shown) [Example 8, 2-[2-(3-Fluoro-5-trifluoromethyl-phenyl)-6-(4-trifluoromethyl-phenyl)-pyridin-4-yl]-4-methyl-pentanoic acid] | 0.12 µM | 
8 | CC(C)CC(C(=O)O)c1cc(-c2ccc(C(C)C)cc2)nc(-c2ccc(C(F)(F)F)cc2)c1 (stereo not shown) [Example 9, 2-[2-(4-Isopropyl-phenyl)-6-(4-trifluoromethyl-phenyl)-pyridin-4-yl]-4-methyl-pentanoic acid] | 0.73 µM | 
9 | CC(C)CC(C(=O)O)c1cc(-c2ccc(C(F)(F)F)cc2)nc(-c2cc(F)cc(F)c2)c1 (stereo not shown) [Example 10, 2-[2-(3,5-Difluoro-phenyl)-6-(4-trifluoromethyl-phenyl)-pyridin-4-yl]-4-methyl-pentanoic acid] | 0.2 µM | 
10 | Cc1ccc(-c2cc(C(CC(C)C)C(=O)O)cc(-c3ccc(C(F)(F)F)cc3)n2)cc1 (stereo not shown) [Example 11, 4-Methyl-2-[2-p-tolyl-6-(4-trifluoromethyl-phenyl)-pyridin-4-yl]-pentanoic acid] |  | 0%
11 | CC(C)CC(C(=O)O)c1cc(-c2ccc(C(F)(F)F)cc2)nc(-c2cccc(C(F)(F)F)c2)c1 (stereo not shown) [Example 12, 4-Methyl-2-[2-(3-trifluoromethyl-phenyl)-6-(4-trifluoromethyl-phenyl)-pyridin-4-yl]-pentanoic acid] |  | 32%
12 | CC(C)CC(C(=O)O)c1cc(-c2ccc(-c3ccccc3)cc2)nc(-c2ccc(C(F)(F)F)cc2)c1 (stereo not shown) [Example 13, 2-[2-Biphenyl-4-yl-6-(4-trifluoromethyl-phenyl)-pyridin-4-yl]-4-methyl-pentanoic acid] |  | 49%
13 | CC(C)CC(C(=O)O)c1cc(-c2ccc(C(F)(F)F)cc2)nc(-c2ccc3ccccc3c2)c1 (stereo not shown) [Example 14, 4-Methyl-2-[2-naphthalen-2-yl-6-(4-trifluoromethyl-phenyl)-pyridin-4-yl]-pentanoic acid] |  | 34%
14 | C=C(C)CC(C(=O)O)c1cc(-c2ccc(C(F)(F)F)cc2)nc(-c2ccc3ccccc3c2)c1 (stereo not shown) [Example 15, 4-Methyl-2-[2-naphthalen-2-yl-6-(4-trifluoromethyl-phenyl)-pyridin-4-yl]-pent-4-enoic acid] |  | 19%
15 | C=C(C)CC(C(=O)O)c1cc(-c2ccc(C(F)(F)F)cc2)nc(-c2ccc(C(F)(F)F)cc2C(F)(F)F)c1 (stereo not shown) [Example 16, 2-[2-(2,4-Bis-trifluoromethyl-phenyl)-6-(4-trifluoromethyl-phenyl)-pyridin-4-yl]-4-methyl-pent-4-enoic acid] |  | 23%
16 | CC(C)CC(C(=O)O)c1cc(-c2ccc(C(F)(F)F)cc2)nc(-c2ccc(C(F)(F)F)cc2C(F)(F)F)c1 (stereo not shown) [Example 17, 2-[2-(2,4-Bis-trifluoromethyl-phenyl)-6-(4-trifluoromethyl-phenyl)-pyridin-4-yl]-4-methyl-pentanoic acid] |  | 64%
17 | C=C(C)CC(C(=O)O)c1cc(-c2ccc(C(F)(F)F)cc2)nc(-c2cncc3ccccc23)c1 (stereo not shown) [Example 18, 2-[2-Isoquinolin-4-yl-6-(4-trifluoromethyl-phenyl)-pyridin-4-yl]-4-methyl-pent-4-enoic acid] |  | 14%

Row | Structure (SMILES) | EC50 | inhibition at 1 µM
18 | CC(C)CC(C(=O)O)c1cc(-c2ccc(C(F)(F)F)cc2)nc(-c2cncc3ccccc23)c1 (stereo not shown) [Example 19, 2-[2-Isoquinolin-4-yl-6-(4-trifluoromethyl-phenyl)-pyridin-4-yl]-4-methyl-pentanoic acid] |  | 14%
19 | C=C(C)CC(C(=O)O)c1cc(-c2ccc(C(F)(F)F)cc2)nc(-c2cccc(F)c2F)c1 (stereo not shown) [Example 20, 2-[2-(2,3-Difluoro-phenyl)-6-(4-trifluoromethyl-phenyl)-pyridin-4-yl]-4-methyl-pent-4-enoic acid] |  | 9%
20 | CC(C)CC(C(=O)O)c1cc(-c2ccc(C(F)(F)F)cc2)nc(-c2cccc(F)c2F)c1 (stereo not shown) [Example 21, 2-[2-(2,3-Difluoro-phenyl)-6-(4-trifluoromethyl-phenyl)-pyridin-4-yl]-4-methyl-pentanoic acid] |  | 12%
21 | CC(C)CC(C(=O)O)c1cc(-c2ccc(C(F)(F)F)cc2)nc(-c2ccc(F)cc2F)c1 (stereo not shown) [Example 22, 2-[2-(2,4-Difluoro-phenyl)-6-(4-trifluoromethyl-phenyl)-pyridin-4-yl]-4-methyl-pentanoic acid] |  | 5%
22 | C=C(C)CC(C(=O)O)c1cc(-c2ccc(C(F)(F)F)cc2)nc(-c2ccc(F)cc2F)c1 (stereo not shown) [Example 23, 2-[2-(2,4-Difluoro-phenyl)-6-(4-trifluoromethyl-phenyl)-pyridin-4-yl]-4-methyl-pent-4-enoic acid] |  | 0%
23 | C=C(C)CC(C(=O)O)c1cc(-c2ccc(C(F)(F)F)cc2)nc(-c2cc(F)ccc2F)c1 (stereo not shown) [Example 24, 2-[2-(2,5-Difluoro-phenyl)-6-(4-trifluoromethyl-phenyl)-pyridin-4-yl]-4-methyl-pent-4-enoic acid] |  | 22%
24 | CC(C)CC(C(=O)O)c1cc(-c2ccc(C(F)(F)F)cc2)nc(-c2cc(F)ccc2F)c1 (stereo not shown) [Example 25, 2-[2-(2,5-Difluoro-phenyl)-6-(4-trifluoromethyl-phenyl)-pyridin-4-yl]-4-methyl-pentanoic acid] |  | 19%
25 | CC(C)CC(C(=O)O)c1cc(-c2ccc(C(F)(F)F)cc2)nc(-c2c(F)cccc2F)c1 (stereo not shown) [Example 26, 2-[2-(2,6-Difluoro-phenyl)-6-(4-trifluoromethyl-phenyl)-pyridin-4-yl]-4-methyl-pentanoic acid] |  | 2%
26 | C=C(C)CC(C(=O)O)c1cc(-c2ccc(C(F)(F)F)cc2)nc(-c2c(F)cccc2F)c1 (stereo not shown) [Example 27, 2-[2-(2,6-Difluoro-phenyl)-6-(4-trifluoromethyl-phenyl)-pyridin-4-yl]-4-methyl-pent-4-enoic acid] |  | 5%
27 | C=C(C)CC(C(=O)O)c1cc(-c2ccc(C(F)(F)F)cc2)nc(-c2cc3ccccc3s2)c1 (stereo not shown) [Example 28, 2-[2-Benzo[b]thiophen-2-yl-6-(4-trifluoromethyl-phenyl)-pyridin-4-yl]-4-methyl-pent-4-enoic acid] |  | 0%
28 | CC(C)CC(C(=O)O)c1cc(-c2ccc(C(F)(F)F)cc2)nc(-c2cc3ccccc3s2)c1 (stereo not shown) [Example 29, 2-[2-Benzo[b]thiophen-2-yl-6-(4-trifluoromethyl-phenyl)-pyridin-4-yl]-4-methyl-pentanoic acid] |  | 57%
29 | CC(C)CC(C(=O)O)c1cc(-c2ccc(C(F)(F)F)cc2)nc(-c2ccc(C(F)(F)F)nc2)c1 (stereo not shown) [Example 30, 4-Methyl-2-[6′-trifluoromethyl-6-(4-trifluoromethyl-phenyl)-[2,3′]bipyridinyl-4-yl]-pentanoic acid] |  | 0%
30 | C=C(C)CC(C(=O)O)c1cc(-c2ccc(C(F)(F)F)cc2)nc(-c2ccc(C(F)(F)F)nc2)c1 (stereo not shown) [Example 31, 4-Methyl-2-[6′-trifluoromethyl-6-(4-trifluoromethyl-phenyl)-[2,3′]bipyridinyl-4-yl]-pent-4-enoic acid] |  | 59%
31 | C=C(C)CC(C(=O)O)c1cc(-c2ccc(C)cc2)nc(-c2ccc(C(F)(F)F)cc2)c1 (stereo not shown) [Example 32, 4-Methyl-2-[2-p-tolyl-6-(4-trifluoromethyl-phenyl)-pyridin-4-yl]-pent-4-enoic acid] |  | 7%
32 | CC(C)CC(C(=O)O)c1cc(-c2ccc(C(F)(F)F)cc2)nc(-c2ccc3c(c2)OCO3)c1 (stereo not shown) [Example 33, 2-[2-Benzo[1,3]dioxol-5-yl-6-(4-trifluoromethyl-phenyl)-pyridin-4-yl]-4-methyl-pentanoic acid] |  | 20%
33 | C=C(C)CC(C(=O)O)c1cc(-c2ccc(C(F)(F)F)cc2)nc(-c2cccc(-c3ccccc3)c2)c1 (stereo not shown) [Example 34, 2-[2-Biphenyl-3-yl-6-(4-trifluoromethyl-phenyl)-pyridin-4-yl]-4-methyl-pent-4-enoic acid] |  | 16%
34 | CC(C)CC(C(=O)O)c1cc(-c2ccc(C(F)(F)F)cc2)nc(-c2cccc(-c3ccccc3)c2)c1 (stereo not shown) [Example 35, 2-[2-Biphenyl-3-yl-6-(4-trifluoromethyl-phenyl)-pyridin-4-yl]-4-methyl-pentanoic acid] |  | 53%

From patent publication US7968725B2, “Pyridinyl modulators of γ-secretase” (Janssen Pharmaceutica N.V., priority 2008, dated 2011)
